Measurements reported in patent publication US20020055465A1, “Nocathiacin antibiotics prepared by biotransformation or chemical methods” (priority 2000, published 2002).
≈ marks a conversion by molar mass, not a printed value. Where a name gives a salt, the structure may show the parent alone. Read-outs that look alike come from different tables or passages of the source.

What was measured:
[1] = test system: Staphylococcus aureus A15090; assay: Systemic Staphylococcus aureus infection model; type: in vivo; settings: female ICR mice infected IP with S. aureus A15090; compound SC at 1 and 4 hours post-infection
Method: Nocathiacin IV and nocathiacin IV 6-deoxyglucoside were evaluated for antibiotic activity in vivo, in a systemic infection model using female ICR mice. The animals were infected intraperitoneally (IP) with 6.5×10^6 CFU of an overnight culture of Staphylococcus aureus A15090 suspended in 7% mucin. The compound was dissolved in a test formulation consisting of 10% DMSO, 5% Tween 80 and 85% water. The solution was administered subcutaneously (SC) at 100 mg/kg total dose (2×50 mg/kg doses at 1 and 4 hours post-infection). The PD50 of nocathiacin IV was determined to be 1.07 mg/kg. The PD50 of nocathiacin IV 6-deoxyglucoside was determined to be 6.4 mg/kg.

[2] = test system: Bacillus subtilis/ATCC6633; assay: MIC, broth micro dilution assay (NCCLS); type: cell-based
Method: (§1) The serial broth dilution method used Mueller-Hinton medium except for the Streptococcus pneumoniae which was tested in 50% Mueller-Hinton medium and 50% Todd Hewitt medium. The final bacterial inoculate contained approximately 5×10^5 cfu/well and was run on microtiter plates. The volume of each well was 100 μL and the plates were incubated at 35° C. for 18 hours in ambient air. The MIC was defined as the lowest drug concentration that prevented visible growth.

Enterococcus faecalis = assay: MIC, broth micro dilution assay (NCCLS); type: cell-based; settings: strain A20688
Method: as §1

Enterococcus faecium = assay: MIC, broth micro dilution assay (NCCLS); type: cell-based
Method: as §1

[3] = test system: Moraxella catarrhalis/β-lactamase positive; assay: MIC, broth micro dilution assay (NCCLS); type: cell-based; settings: strain A22344
Method: as §1

Staphylococcus aureus = assay: MIC, broth micro dilution assay (NCCLS); type: cell-based
Method: as §1

[4] = test system: Staphylococcus epidermidis; assay: MIC, broth micro dilution assay (NCCLS); type: cell-based; settings: strain A24548
Method: as §1

[5] = test system: Staphylococcus haemolyticus; assay: MIC, broth micro dilution assay (NCCLS); type: cell-based; settings: strain A27298
Method: as §1

Streptococcus pneumoniae = assay: MIC, broth micro dilution assay (NCCLS); type: cell-based
Method: as §1

[6] = Enterococcus faecalis + 50% calf serum
[7] = Enterococcus faecalis, read-out: MIC
[8] = Enterococcus faecium/vancomycin resistant, strain A28142
[9] = 209P / ATCC 6538P, Staphylococcus aureus/209P/ATCC6538P, strain A9497
[10] = Staphylococcus aureus + 50% calf serum, strain A15090
[11] = Staphylococcus aureus + 50% calf serum, strain A27223
[12] = Staphylococcus aureus/homo methicillin resistant, strain A27223
[13] = Staphylococcus aureus/β lactamase positive, strain A15090
[14] = Streptococcus pneumoniae, strain A9585, 50% Mueller-Hinton/50% Todd Hewitt medium
[15] = Streptococcus pneumoniae/penicillin intermediate, strain A27881
[16] = Streptococcus pneumoniae/penicillin resistant, strain A28272, read-out: MIC

For CO/C(C)=C1/NC(=O)C(C(C)O)NC(=O)c2csc(n2)-c2cc(O)c(-c3nc(C(N)=O)cs3)nc2-c2csc(n2)C2COC(=O)c3c4c5c(cccc5n3O)COC(=O)C(OC3CC(C)(O)C(N(C)C)C(C)O3)C(OC4)C(NC(=O)c3csc1n3)c1nc(cs1)C(=O)N2 (stereo not shown) [nocathiacin IV], the PD50 [1] was 1.07 mg/kg.
CO/C(C)=C1/NC(=O)C(C(C)O)NC(=O)c2csc(n2)-c2cc(O)c(-c3nc(C(N)=O)cs3)nc2-c2csc(n2)C2COC(=O)c3c4c5c(cccc5n3O)COC(=O)C(OC3CC(C)(O)C(N(C)C)C(C)O3)C(OC4)C(NC(=O)c3csc1n3)c1nc(cs1)C(=O)N2 (stereo not shown) [Nocathiacin IV (HCI salt), nocathiacin IV] was tested, and the MIC [2] was 0.06 µg/mL, the MIC (Enterococcus faecalis; [6]) was 0.03 µg/mL and the MIC (Enterococcus faecalis; [7]) was 0.03 µg/mL. It also gave an MIC (Enterococcus faecium; [8]) of 0.03 µg/mL, an MIC (Enterococcus faecium; strain A24885) of 0.06 µg/mL and an MIC [3] of 0.25 µg/mL. It also gave an MIC (Staphylococcus aureus; [9]) of 0.03 µg/mL, an MIC (Staphylococcus aureus; [10]) of 0.03 µg/mL and an MIC (Staphylococcus aureus; [11]) of 0.03 µg/mL. For the same compound, the MIC (Staphylococcus aureus; [12]) was 0.03 µg/mL, the MIC (Staphylococcus aureus; [13]) was 0.03 µg/mL and the MIC [4] was 0.06 µg/mL. For the same compound, the MIC [5] was 0.06 µg/mL, the MIC (Streptococcus pneumoniae; [14]) was 0.001 µg/mL and the MIC (Streptococcus pneumoniae; [15]) was 0.001 µg/mL. It also gave an MIC (Streptococcus pneumoniae; [16]) of 0.001 µg/mL.
Work on CO/C(C)=C1/NC(=O)C(C(C)O)NC(=O)c2csc(n2)-c2cc(OC3OC(C)C(O)C(O)C3O)c(-c3nc(C(N)=O)cs3)nc2-c2csc(n2)C2COC(=O)c3c4c5c(cccc5n3O)COC(=O)C(OC3CC(C)(O)C(N(C)C)C(C)O3)C(OC4)C(NC(=O)c3csc1n3)c1nc(cs1)C(=O)N2 (stereo not shown) [nocathiacin IV 6-deoxyglucoside] yielded an MIC [2] of 0.5 µg/mL (≈ 0.33 µM), an MIC (Enterococcus faecalis; [6]) of 0.25 µg/mL and an MIC (Enterococcus faecalis; [7]) of 0.25 µg/mL (≈ 0.165 µM). The MIC (Enterococcus faecium; [8]) was 0.5 µg/mL (≈ 0.33 µM), the MIC (Enterococcus faecium; strain A24885) was 0.5 µg/mL (≈ 0.33 µM) and the MIC [3] was 2 µg/mL (≈ 1.32 µM). The MIC (Staphylococcus aureus; [9]) was 0.5 µg/mL (≈ 0.33 µM), the MIC (Staphylococcus aureus; [10]) was 0.25 µg/mL and the MIC (Staphylococcus aureus; [11]) was 0.25 µg/mL. For the same compound, the MIC (Staphylococcus aureus; [12]) was 0.5 µg/mL (≈ 0.33 µM), the MIC (Staphylococcus aureus; [13]) was 0.5 µg/mL (≈ 0.33 µM) and the MIC [4] was 0.25 µg/mL (≈ 0.165 µM). It also gave an MIC [5] of 0.5 µg/mL (≈ 0.33 µM), an MIC (Streptococcus pneumoniae; [14]) of 0.03 µg/mL (≈ 0.0198 µM) and an MIC (Streptococcus pneumoniae; [15]) of 0.03 µg/mL (≈ 0.0198 µM). The MIC (Streptococcus pneumoniae; [16]) was 0.03 µg/mL (≈ 0.0198 µM) and the PD50 [1] was 6.4 mg/kg.
